Data on eleven molecules can be found in patent US20130203830A1, “Compounds for Prevention of Cell Injury” (SULFATEQ B.V., priority 2010, published 2013).

“Also recorded” adds a separate entry of the source.

For assay [1], the system named is DDT-1 cells. Briefly: Survival of DDT-1 cells after hypothermia (MTS assay). The assay is classed as cell-based, hamster. The following applies: 3° C.; for resistance / survival of DDT-1 cells in hypothermia: 24 h, ketanserine 400 ng/ml and 10 μg/ml, fluoxetine 0.005 μM 15 min before, CBS siRNA. As to the method: Cell lines used included NRK (normal rat kidney cells), DDT-1 (hamster ductus deferens muscle cells) and A7R5 (rat vascular smooth muscle cells) cultured in DMEM (Gibco, 41966, UK) and SMAC (rat smooth muscle aortic cells) and THMC (transformed human mesangial cell) cultured in DMEM/F12 (Gibco, E12-719F). All media were supplied with 10% (vol/vol) fetal calf serum and 1% penicillin-streptomycin and cultured at 37° C. in 5% CO2 in 25 cm^2 or 75 cm^2 flasks. For hypothermia experiments, cells were plated in 6 or 96 wells plates and grown to confluence. […] Cell survival was measured by counting of trypan blue stained cells or MTS assay, which measures the number of viable cells. For the latter, 20 μl of MTS solution was added to each well and cells were subsequently placed in the incubator at 37° C. in 5% CO2 for 3 hr before assessing the cell survival by measuring absorption using a microplate reader at 490 nm.
(§1) MTS assay was performed to investigate cell survival after blocking serotonin transporter and hypothermic treatment.
Parachlorophenyl-alanine (PCPA; Sigma, C6506-5G) was dissolved in warmed, acidified (pH 6.8) DDT-1 medium and vortexed for 5 min to a final concentration of 1.25 μM. Other concentrations were made from this stock solution. Control experiments were performed with a similar solution without PCPA. Anhydrous creatine (Sigma C4255-25G, USA) was dissolved in cell medium and added to wells to exclude the effect of this component. The treatment continued for 4 days until the concentration of indoleamines inside the cells reached half the baseline value. The cells were placed at 3° C., and MTS assay was performed after 24 h.
For orientation: Formazan colour is commonly taken as a measure of viable cells.

Assay [2] has as its system DDT-1 cells. Briefly: Indoleamine content of DDT-1 cells (Ehrlich reagent). The note with it: 4 days of pretreatment, n=8. Type of assay: cell-based, hamster. As to the method:
Ehrlich's reagent was used to quantify the cellular amount of indoles. Qualitative analysis of cellular indoles in cell culture medium at 37° C. and 3° C. was conducted after extraction according to Happold and Hoyle. Five ml of medium was shaken vigorously with 2 ml of xylene. Next, 1 ml of Ehrlich's reagent is applied to the surface of the mixture. Redistribution of xylene through the Ehrlich's reagent induces formation of the rosindole body, a red ring appearing at the lower surface of the xylene layer indicating the presence of indoleamides. The change in indole concentration in DDT-1 cells was measured after washing the cells with PBS, centrifugation (1000 rpm, 5 min) and removal of supernatant. Ehrlich reagent (200 μl) was added to each tube. After 3 min of vortexing, tubes were left for 3 h at 60° C. After centrifugation (1000 rpm, 5 min), color intensity was spectrophotometrically measured at 625 nm. Calibration experiments were carried out using 5-HT (0.025-0.5 mM), which rendered a linear regression with a correlation coefficient (R2) of 0.9996 (data not shown). To verify the accuracy of the Ehrlich reagent experiments automated mass spectrometric analysis was performed on all the samples according to the method set up by Ido P. Kema. […]

Assay [3] deals with SMAC cells. Description: H2S production in SMAC cells at 3° C. (methylene blue, supernatant). Type of assay: cell-based, rat. The note with it: SMAC cells incubated at 3° C. for 24 hour. Here is the method: (§2) Methylene blue method for H2S detection was applied to quantitatively measure the H2S production. Cells were washed with PBS, scraped and centrifuged for 60 sec at 1000 rpm. After removal of the supernatant, zinc acetate 1% in water (200 μl) was added to the cell sediments and the cells were disrupted by small glass beads and vortexed for 20 seconds. Diamine-ferric solution was prepared by mixing 100 μl of a 400 mg N,N-dimethyl-p-phenylenediamine dihydrochloride dissolved in 10 ml 6M HCl and 100 μl of 600 mg ferric chloride in 10 ml 6M HCl. Two hundred μl of this mixture was added to the cell suspension and after an incubation time of 30 min at 37° C. and centrifugation, the amount of methylene blue formed in the supernatant was measured at a wavelength of 670 nm. To measure H2S content of supernatant, the same procedure was repeated for the cell free medium of cells incubated at both 37° C. and 3° C. Blanks were made following the same procedure without cells or using fresh medium. The concentration of H2S was calculated by extrapolation using a standard curve obtained from different concentrations of Methylene blue and spectrophotometric measurement at a wavelength of 670 nm. The amount of H2S present was calculated on the basis that every mole of methylene blue formed in this reaction contains 32 g (1 mole) of captured sulfur.
Methylene blue method for H2S detection was applied to quantitatively examine the H2S present in cell supernatant at 0 and 24 hr after hypothermic treatment at 3° C.

The subject of assay [4] is SMAC cells. Briefly: Survival of SMAC cells after hypothermia (MTS assay / cell counting). The following applies: for effect on the protective effect of serotonin on hypothermic SMAC cells: 24 h, 3° C., ketanserine 400 ng/ml and 10 μg/ml, fluoxetine 0.005 μM, CBS siRNA. Type of assay: cell-based, rat. As to the method:
Cell lines used included NRK (normal rat kidney cells), DDT-1 (hamster ductus deferens muscle cells) and A7R5 (rat vascular smooth muscle cells) cultured in DMEM (Gibco, 41966, UK) and SMAC (rat smooth muscle aortic cells) and THMC (transformed human mesangial cell) cultured in DMEM/F12 (Gibco, E12-719F). All media were supplied with 10% (vol/vol) fetal calf serum and 1% penicillin-streptomycin and cultured at 37° C. in 5% CO2 in 25 cm^2 or 75 cm^2 flasks. For hypothermia experiments, cells were plated in 6 or 96 wells plates and grown to confluence. Thereupon, cells were placed at 3° C. for up to 24 hours. Cell survival was measured by counting of trypan blue stained cells or MTS assay, which measures the number of viable cells. For the latter, 20 μl of MTS solution was added to each well and cells were subsequently placed in the incubator at 37° C. in 5% CO2 for 3 hr before assessing the cell survival by measuring absorption using a microplate reader at 490 nm.
as §1

The subject of assay [5] is DDT-1 cells. Description: H2S content of DDT-1 cells (methylene blue method). The assay is classed as cell-based, hamster. The note with it: hypothermia, at 24 h. As to the method:
as §2

Assay [6] has as its target T1, CBS (Homo sapiens, UniProt P35520).
T1 sequence (P35520 1-551): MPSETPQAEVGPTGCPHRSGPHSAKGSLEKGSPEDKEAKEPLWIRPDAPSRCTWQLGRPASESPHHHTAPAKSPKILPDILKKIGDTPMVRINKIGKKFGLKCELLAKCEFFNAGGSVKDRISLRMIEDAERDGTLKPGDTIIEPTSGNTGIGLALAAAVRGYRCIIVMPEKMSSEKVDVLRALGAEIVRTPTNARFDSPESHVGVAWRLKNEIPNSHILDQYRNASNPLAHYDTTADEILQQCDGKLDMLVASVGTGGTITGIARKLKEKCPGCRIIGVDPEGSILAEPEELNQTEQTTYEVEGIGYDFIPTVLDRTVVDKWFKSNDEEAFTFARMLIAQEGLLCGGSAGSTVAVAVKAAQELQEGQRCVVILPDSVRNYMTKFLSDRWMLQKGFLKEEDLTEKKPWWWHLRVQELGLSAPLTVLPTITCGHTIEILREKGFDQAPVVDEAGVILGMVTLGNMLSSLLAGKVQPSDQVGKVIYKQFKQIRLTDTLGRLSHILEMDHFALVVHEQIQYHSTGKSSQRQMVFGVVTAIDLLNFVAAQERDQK
The note with it: binding to CBS; cited from earlier work.

Assay [7] deals with CBS. Description: CBS expression in normothermic and hypothermic rat tissue (immunostaining). The following applies: liver, pancreas, lung, kidney, heart; 3° C., 24 hr. An excerpt:
Two rats (rattus norvegicus) were sacrificed and blood was taken out. The tissues were flushed by either PBS as control or PBS plus dopamine. Liver, pancreas, lung, kidney and heart were harvested. […] Tissues were fixed after being taken out of cold room. The tissues were later embedded in Paraffin, cut into 5 μm sections and stained with CBS antibody.

The subject of assay [8] is male Wistar rats. Briefly: In vivo protection from hypothermic liver damage (FABP1 expression). Further details: species or system rat. The following applies: rats cooled to 15° C. for 3 hr and rewarmed to 37° C.; compared to non-cooled control. As to the method: (§3) Three groups of male Wistar rats (350-400 gr) were investigated: cooled rats either anesthetized with propofol or ketamine (n=6 each); a non-cooled control group briefly anesthetized with isofluran was sacrificed at 37° C. (n=3). After anesthesia with isofluran, the trachea was intubated with a […] cuffed tube and mechanical ventilation was started with air. A 5F central venous catheter was introduced in the internal jugular vein for blood sampling, hydration and administration of the anesthetic. A catheter was inserted in the common carotid artery for continuous monitoring of systemic arterial pressure and for blood gas analysis. Cardiovascular and oxygen saturation monitoring was performed during the entire procedure. After preparation, isoflurane was stopped and anesthesia was maintained with either propofol-Lipro (20 mg/m; Braun, Melsungen, Duitsland) at 2 ml/h or ketamine 0.6 ml/hr for 1 hr. Cooling of the animals was accomplished by an external cooling blanket and ice packs. […] Rats were kept at this temperature for 3 hr, followed by rewarming to 37° C. in about 1 hr using a heating blanket and warm air. The rats were then kept at 37° C. for another hr, followed by sacrification by exsanguination. Blood sampling was performed at the end of the preparation period and every hr after the body temperature reached 15° C. […]

In assay [9] the test system is CBS. Briefly: CBS expression in liver of cooled and rewarmed rats. The assay is classed as in vivo, rat. The note with it: rats cooled to 15° C. for 3 hr and rewarmed; compared to controls. As to the method: as §3, with “exsanguination.” for “exsanguination. Blood sampling was performed at the end of the preparation period and every hr after the body temperature reached 15° C.”
CBS (cystathionine betasynthase) expression was also measured as the one of the main enzymes producing H2S in the liver.

Assay [10] in a line: Serum H2S concentration in rats (methylene blue method). The assay is classed as in vivo, rat. The following applies: throughout cooling and rewarming procedure, compared to control.

In the case of `N[C@@H](Cc1ccc(Cl)cc1)C(=O)O` (racemic) [PCPA, parachlorophenylalanine], the “DDT-1 survival following hypothermia after PCPA pretreatment” value in [1] (48 hr) is “concentration-dependently decreased; also recorded: blocked”. In assay [2], the “decrease in indoleamine content of the cells” value is 50±10%.
Turning to `NCC(CC(=O)O)c1ccc(Cl)cc1` (racemic) [baclofen, (RS)-4-amino-3-(4-chlorophenyl)butanoic acid], in assay [3], the H2S production entry is listed as “increased H2S production”.
Consider `CN(CC(=O)O)C(=N)N.O=S(=O)(O)O` [Creatine sulfate], for which the “protection against hypothermic cell death / reduction in number of cells” value in [4] (SMAC cells, 24 h at 3° C., substance added 15 min before hypothermia) was “did not show any protective effects”.
For `CNCCC(Oc1ccc(C(F)(F)F)cc1)c1ccccc1` (stereo not drawn) [Fluoxetine], the “effect on the protective effect of serotonin on hypothermic SMAC cells” value in assay [4] is “complete annihilation of the protective effect of serotonin”. Further, the “resistance / survival of DDT-1 cells in hypothermia” value in assay [1] is “death of more than half of these cells”. Also, the “H2S concentration inside DDT-1 cells” value in [5] is reported as “lower concentration of H2S”.
Consider `O=C(c1ccc(F)cc1)C1CCN(CCn2c(=O)[nH]c3ccccc3c2=O)CC1` [Ketanserine], for which the “effect on the protective effect of serotonin on hypothermic SMAC cells” value in assay [4] is given as “nor did it affect the protective effect of serotonin”. For the same molecule, the “resistance / survival of DDT-1 cells in hypothermia” value in [1] is “did not affect the resistance”.
With `Cc1ncc(COP(=O)(O)O)c(C=O)c1O` [PLP, Pyridoxal 5-Phosphate], the “free energy of binding reported for PLP” value in [6] was -4.81 kcal/mol.
Turning to `NCCc1ccc(O)c(O)c1` [dopamine, 2-(3,4-dihydroxyfenyl)ethylamine], the “CBS expression in hypothermic rat tissue” value in assay [7] is given as “increased expression; also recorded: upregulation of CBS”. In assay [3], the H2S production result is listed as “increased H2S production”.
As for `NCCc1c[nH]cn1` [histamine, 4-(2′-aminoethyl)-imidazol], in assay [3], the H2S production result is on record as “increased H2S production”.
Take `CNC1(c2ccccc2Cl)CCCCC1=O` (stereo not drawn) [ketamine, reference compound]: in [8], the “liver damage, FABP1 expression in liver” value is on record as “decreased expression of FABP1”. Also, in assay [9], the “CBS expression in liver” value is given as “significantly lowered”. Also, the “Serum H2S concentration” value in assay [10] was “decreased”.
With `COc1ccc2[nH]cc(CCNC(C)=O)c2c1` [melatonin, N-[2-(5-methoxy-1H-indol-3-yl)ethyl]acetamide], in assay [3], the H2S production entry is “increased H2S production”.
Consider `CC(C)c1cccc(C(C)C)c1O` [propofol, 2,6-diisopropylfenol], for which the H2S production entry in [3] was “increased H2S production”. Moreover, the “liver damage, FABP1 expression in liver” value in assay [8] was “protects liver tissue against in vivo hypothermia”. Further, the “CBS expression in liver” value in [9] is given as “induces expression of cystathionine beta synthase; also recorded: increased the expression of CBS”. Moreover, the “Serum H2S concentration” value in assay [10] is listed as “increased”.
